Results published in patent US20060069132A1, “Azolecarboxamide herbicides” (priority 2004, published 2006).

Experiments:
barnyardgrass [1] = experiment: Test B pre-/postemergence herbicide test; type: in vivo, Echinochloa crus-galli
How it was run: (§1)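 Herbicidal effect was judged by eye on a 0–100 scale after plants stood 13 to 15 days in the greenhouse following pre- or postemergence treatment with surfactant-containing formulations.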

rice = experiment: Test B flooded paddy test; type: in vivo, Oryza sativa; details: 1000 g ai/ha, visual rating, scale 0 to 100 (0 no effect, 100 complete control), 13 to 15 days
How it was run: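 Visual ratings, 0 (no effect) to 100 (complete control), made versus controls after 13–15 d greenhouse. Paddy plants treated at 2-leaf stage; postemergence plants at 1- to 4-leaf stage, 2–18 cm tall.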

pigweed = experiment: Test B pre-/postemergence herbicide test; type: in vivo, Amaranthus retroflexus; details: for Pigweed plant response rating: postemergence, visual rating
How it was run: (§2)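 Seeds were planted and treated preemergence with compounds formulated in a non-phytotoxic solvent mixture containing surfactant, while plants at the 1- to 4-leaf stage (2 to 18 cm) received postemergence sprays. Flooded paddy plants were grown to the 2-leaf stage. After 13 to 15 days in a greenhouse, injury was visually rated 0–100 against untreated controls.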

blackgrass = experiment: Test B postemergence herbicide test; type: in vivo, Alopecurus myosuroides; details: scale 0 (no effect) to 100 (complete control); for Plant response rating, Blackgrass: Postemergence, 500 g ai/ha, visual rating after 13 to 15 days; for Blackgrass plant response rating: postemergence, 125 g ai/ha, visual rating
How it was run: (§3)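 Treated at 2-leaf (paddy) or 1–4-leaf, 2–18 cm (postemergence); greenhouse 13–15 d; visual score vs control, 0 none to 100 complete control; dash = not tested.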

Surinam grass = experiment: Test B pre-/postemergence herbicide test; type: in vivo, Urochloa decumbens; details: for Surinam Grass plant response rating: postemergence, visual rating
How it was run: as §2

wheat = experiment: Test B postemergence herbicide test; type: in vivo, Triticum aestivum; parameters: key to Wheat plant response rating: 0 = no effect, 100 = complete control; details: scale 0 (no effect) to 100 (complete control); for Plant response rating, Wheat: Postemergence, 500 g ai/ha, visual rating after 13 to 15 days; for Wheat plant response rating: postemergence, 125 g ai/ha, visual rating
How it was run: (§4)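 Formulated test chemicals went onto postemergence plants measuring 2 to 18 cm, at one to four leaves. For the paddy assay, species had reached two leaves. Scoring took place 13–15 days later by eye, relative to untreated plants, using 0 for no effect up to 100 for full control.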

cocklebur = experiment: Test B pre-/postemergence herbicide test; type: in vivo, Xanthium strumarium
How it was run: as §1

giant foxtail = experiment: Test B pre-/postemergence herbicide test; type: in vivo, Setaria faberi
How it was run: as §2

velvetleaf = experiment: Test B pre-/postemergence herbicide test; type: in vivo, Abutilon theophrasti; details: for Velvetleaf plant response rating: postemergence, visual rating
How it was run: as §2

barnyardgrass [2] = experiment: Test B flooded paddy test; type: in vivo, Echinochloa crus-galli; details: 1000 g ai/ha, visual rating, scale 0 to 100 (0 no effect, 100 complete control), 13 to 15 days
How it was run: as §3

corn = experiment: Test B pre-/postemergence herbicide test; type: in vivo, Zea mays
How it was run: as §2

large crabgrass = experiment: Test B pre-/postemergence herbicide test; type: in vivo, Digitaria sanguinalis
How it was run: as §2

ducksalad = experiment: Test B flooded paddy test; type: in vivo, Heteranthera limosa; details: 1000 g ai/ha, visual rating, scale 0 to 100 (0 no effect, 100 complete control), 13 to 15 days
How it was run: as §3

wild oat = experiment: Test B postemergence herbicide test; type: in vivo, Avena fatua; details: scale 0 (no effect) to 100 (complete control); for Plant response rating, Oat, Wild: Postemergence, 500 g ai/ha, visual rating after 13 to 15 days; for Oat, Wild plant response rating: postemergence, 125 g ai/ha, visual rating
How it was run: as §4

[3] = test system: small flower umbrella sedge; experiment: Test B flooded paddy test; type: in vivo, Cyperus difformis; details: 1000 g ai/ha, visual rating, scale 0 to 100 (0 no effect, 100 complete control), 13 to 15 days
How it was run: as §3

[4] = Postemergence, 500 g ai/ha, visual rating after 13 to 15 days, scale 0 (no effect) to 100 (complete control)
[5] = Preemergence, 500 g ai/ha, scale 0 to 100
[6] = postemergence, 125 g ai/ha, visual rating, scale 0 (no effect) to 100 (complete control)
[7] = preemergence, 125 g ai/ha, 0 to 100 scale, 0 is no effect, 100 is complete control
[8] = 125 g ai/ha, scale 0 (no effect) to 100 (complete control)

| SMILES | Plant response rating, Barnyardgrass (barnyardgrass [1]; [4]) | Barnyardgrass plant response rating (barnyardgrass [1]; [5]) | Barnyardgrass plant response rating (barnyardgrass [1]; [6]) | Plant response rating, Barnyardgrass (barnyardgrass [1]; [7]) | Rice plant response rating (rice) | Plant response rating, Pigweed (pigweed; [4]) | Pigweed plant response rating (pigweed; [8]) | Plant response rating, Pigweed (pigweed; [7]) | Plant response rating, Blackgrass (blackgrass) | Blackgrass plant response rating (blackgrass) | Plant response rating, Surinam Grass (Surinam grass; [4]) | Surinam Grass plant response rating (Surinam grass; [8]) | Plant response rating, Surinam Grass (Surinam grass; [7]) | Plant response rating, Wheat (wheat) | Wheat plant response rating (wheat) | Plant response rating, Cocklebur (cocklebur; [4]) | Cocklebur plant response rating (cocklebur; [6]) | Plant response rating, Cocklebur (cocklebur; [7]) | Plant response rating, Foxtail, Giant (giant foxtail; [4]) | Foxtail, Giant plant response rating (giant foxtail; [5]) | other results |
| --- | --- | --- | --- | --- | --- | --- | --- | --- | --- | --- | --- | --- | --- | --- | --- | --- | --- | --- | --- | --- | --- |
| C#CCOC(=O)c1cccc(NC(=O)c2cc(C(C)(C)C)nn2CC)c1 [Compound 84] | 40 | 0 | 20 | 0 | 0 | 100 | 80 | 0 | 10 | 0 | 60 | 50 | 0 | 30 | 20 | 100 | 20 | 0 | 10 | 0 | Foxtail, Giant plant response rating (giant foxtail; [6]): 10; Plant response rating, Foxtail, Giant (giant foxtail; [7]): 0; Plant response rating, Velvetleaf (velvetleaf; [4]): 100; Velvetleaf plant response rating (velvetleaf; [8]): 60; Plant response rating, Velvetleaf (velvetleaf; [7]): 0; Barnyardgrass plant response rating (barnyardgrass [2]): 10; Plant response rating, Corn (corn; [4]): 20; Corn plant response rating (corn; [5]): 0; Corn plant response rating (corn; [6]): 10; Plant response rating, Corn (corn; [7]): 0; Plant response rating, Crabgrass, Large (large crabgrass; [4]): 50; Crabgrass, Large plant response rating (large crabgrass; [5]): 0; Crabgrass, Large plant response rating (large crabgrass; [6]): 20; Plant response rating, Crabgrass, Large (large crabgrass; [7]): 0; Ducksalad plant response rating (ducksalad): 20; Plant response rating, Oat, Wild (wild oat): 20; Oat, Wild plant response rating (wild oat): 20; Sedge, Umbrella plant response rating [3]: 70 |
| C=CCOC(=O)c1cccc(NC(=O)c2cc(C(C)(C)C)nn2CC)c1 [Compound 85] | 80 | 0 | 60 | 0 | 40 | 100 | 100 | 0 | 20 | 10 | 70 | 60 | 0 | 60 | 50 | 100 | 90 | 0 | 50 | 0 | Cocklebur plant response rating (cocklebur; [5]): 0; Foxtail, Giant plant response rating (giant foxtail; [6]): 20; Plant response rating, Foxtail, Giant (giant foxtail; [7]): 0; Plant response rating, Velvetleaf (velvetleaf; [4]): 80; Velvetleaf plant response rating (velvetleaf; [8]): 60; Plant response rating, Velvetleaf (velvetleaf; [7]): 0; Barnyardgrass plant response rating (barnyardgrass [2]): 40; Plant response rating, Corn (corn; [4]): 30; Corn plant response rating (corn; [5]): 0; Corn plant response rating (corn; [6]): 20; Plant response rating, Corn (corn; [7]): 0; Plant response rating, Crabgrass, Large (large crabgrass; [4]): 80; Crabgrass, Large plant response rating (large crabgrass; [5]): 0; Crabgrass, Large plant response rating (large crabgrass; [6]): 50; Plant response rating, Crabgrass, Large (large crabgrass; [7]): 0; Ducksalad plant response rating (ducksalad): 20; Plant response rating, Oat, Wild (wild oat): 50; Oat, Wild plant response rating (wild oat): 20; Sedge, Umbrella plant response rating [3]: 60 |
